The record followed here is US20250197359A1, “CANNABINOID RECEPTOR MODULATING COMPOUNDS” (The U.S.A., as Represented by the Secretary, Department of …, priority 2022, published 2025).

For one data set, the target named is CB1 (UniProt P21554). Nature of the data set: CB1 radioligand binding assay. More on the design: species or system human. As to conditions: read-out: Ki (CB1). Put shortly:
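Radioligand binding to human CB1 stably expressed in CHO cells and to mouse brain membrane CB1 gave binding constants. For selected compounds, antagonism of CP55940-induced CB1 activation was measured in MPXNomad-CB1 HEK293 cells via cAMPNomad (cAMP) and ArresNomad (β-arrestin) fluorescent biosensors.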

For another data set, the target named is T1, Brain/CB1 (Mus musculus, UniProt P47746).
T1 construct: from tissue; host or cells: mouse brain membranes
As to the kind of experiment: Functional GTPγS binding, Brain/CB1. Type of data set: biochemical. For orientation: GTPγS is a poorly hydrolysed GTP analogue; its binding reports G protein activation.

The test system of a further data set is Caco-2. As to the kind of experiment: Caco-2 permeability (A-B and B-A). Type of data set: in vitro ADME. (In general: Caco-2 cells form a polarised layer with tight junctions and transporters.)
Data set [1] can be described thus: Metabolic stability in mouse liver microsomes. Type of data set: in vitro ADME. The following applies: for microsomal CLint / half-life: mouse, liver microsomes; for half-life: read-out: t1/2, min. On the technique in general: Liver microsomes are vesicles of endoplasmic reticulum, rich in cytochrome P450 enzymes.
The nature of data set [2]: Metabolic stability in human liver microsomes. Type of data set: in vitro ADME. As to conditions: for microsomal CLint / half-life: human, liver microsomes; for half-life: read-out: t1/2, min.
Another data set deals with iNOS (Mus musculus, UniProt P29477). As to the kind of experiment: Inducible NOS biochemical assay. An excerpt: Biochemical assay results are presented as the percent inhibition of specific binding or activity (iNOS, CAMP, beta arrestin).
Data set [3] is described as follows: Caco-2 permeability (A-B and B-A). As to conditions: human; for efflux ratio: Caco-2, quotient of Papp(BA) to Papp(AB). Type of data set: in vitro ADME.
The target in data set [4] is T2, Cannabinoid receptor 1 (Homo sapiens, UniProt P21554).
T2 construct: expressed in transfected cells; host or cells: MPXNomad-CB1 HEK293 cell line
As to the kind of experiment: cAMP signaling, red cAMPNomad biosensor, MPXNomad-CB1 HEK293 cell line, antagonism of CP55940. Type of data set: cell-based. As to conditions: for reduction in the fluorescence intensity, cAMP assay: CP55940 3 μM. The method, then:
(§1) A number of these amino carboxamido adducts with a variety of side chains have been synthesized. This led to interesting CB1R binding affinities of the synthesized molecules. Several of these racemic (glycine, valine) or diastereomeric molecules have binding affinities in single digit nanomolar range (2 nM to 10 nM) obtained from radioligand binding assay. Furthermore, we investigated the antagonist effect of a few compounds to analyze their capability to modulate CBIR induced by CP55940 in the MPXNomad-CB1 HEK293 cell line. This cell line has been validated measuring cAMP signaling and ß-Arrestin mobilization analyzing the fluorescence intensity of the red cAMPNomad and the green ArresNomad biosensors.
(§2) The MPXNomad-CB1 cell line was used to test substances or examine their ability to interact with Cannabinoid receptor 1 where an agonist that binds to CB1 activates a G protein, which in turn causes CAMP to be released and a cellular response that is then internalized by ß-Arrestin. The assay determined the efficacy to block the activation of the CB1 receptor brought on by CP55940 in the MPXNomad-CB1 HEK293 cell line. AM251 1 μM and 3 µM was utilized as the positive control, CP55940 3 μM was used as the negative control, and vehicle (DMSO) served as the zero control. Treatment with CP55940 3 μM produced an increment in the fluorescence intensity of the red cAMPNomad and the green ArresNomad biosensors. […] Instead, the reduction was a 50%, 34% and 22% at 1 μM, 100 nM and 10 nM, respectively in the arrestin assay.

Data set [5] concerns the target T2, Cannabinoid receptor 1. As to the kind of experiment: β-Arrestin mobilization, green ArresNomad biosensor, MPXNomad-CB1 HEK293 cell line, antagonism of CP55940. Type of data set: cell-based. As to conditions: for reduction in the fluorescence intensity, arrestin assay: CP55940 3 μM. The procedure:
as §1, §2

The mark [6] stands for this setting: Caco-2, mean, read-out: Papp (AB), 10^−6 cm/s, Mean.
The mark [7] stands for this setting: Caco-2, mean, read-out: Papp (BA), 10^−6 cm/s, Mean.
[8] abbreviates: Caco-2, replicate 1, read-out: Papp (AB), 10^−6 cm/s, 1.
Setting [9] is: Caco-2, replicate 1, read-out: Papp (BA), 10^−6 cm/s, 1.
Where [10] appears, read: Caco-2, replicate 2, read-out: Papp (AB), 10^−6 cm/s, 2.
[11] abbreviates: Caco-2, replicate 2, read-out: Papp (BA), 10^−6 cm/s, 2.
Where [12] appears, read: vs CP55940, MPXNomad-CB1 HEK293.

Structures are written as SMILES. Where two headings read alike, the source gives them in different places.

T2 sequence (P21554 whole entry): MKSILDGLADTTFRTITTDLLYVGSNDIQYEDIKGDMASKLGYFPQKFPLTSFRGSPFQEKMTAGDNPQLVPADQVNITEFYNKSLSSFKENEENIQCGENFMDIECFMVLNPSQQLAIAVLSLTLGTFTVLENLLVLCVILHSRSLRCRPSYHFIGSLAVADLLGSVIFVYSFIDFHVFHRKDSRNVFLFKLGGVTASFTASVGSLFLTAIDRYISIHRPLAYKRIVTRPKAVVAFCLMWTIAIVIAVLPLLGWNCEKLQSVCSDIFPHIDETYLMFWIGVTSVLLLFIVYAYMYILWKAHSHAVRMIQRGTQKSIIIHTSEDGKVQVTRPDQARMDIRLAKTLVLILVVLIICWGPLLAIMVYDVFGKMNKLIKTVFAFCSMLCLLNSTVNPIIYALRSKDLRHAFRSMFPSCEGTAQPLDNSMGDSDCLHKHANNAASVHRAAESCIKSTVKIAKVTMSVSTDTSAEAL
T1 sequence (P47746 whole entry): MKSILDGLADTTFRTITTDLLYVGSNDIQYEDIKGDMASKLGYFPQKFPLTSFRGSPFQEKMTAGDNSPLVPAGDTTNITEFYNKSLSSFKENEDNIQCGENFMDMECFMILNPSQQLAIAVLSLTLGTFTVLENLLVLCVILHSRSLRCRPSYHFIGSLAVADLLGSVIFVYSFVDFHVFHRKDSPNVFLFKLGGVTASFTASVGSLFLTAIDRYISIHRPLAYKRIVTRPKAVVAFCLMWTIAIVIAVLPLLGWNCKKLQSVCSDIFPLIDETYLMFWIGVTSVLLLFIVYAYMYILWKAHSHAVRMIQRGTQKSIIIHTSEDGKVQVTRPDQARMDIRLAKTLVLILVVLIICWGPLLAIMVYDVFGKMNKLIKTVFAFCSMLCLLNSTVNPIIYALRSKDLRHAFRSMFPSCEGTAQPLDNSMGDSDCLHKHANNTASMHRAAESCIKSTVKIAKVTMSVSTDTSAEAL

As a reminder, the Ki is the dissociation constant of the complex between target and ligand, obtained from inhibition or displacement. As usually defined, the IC50 is the concentration needed to halve the response being measured. The term efflux ratio denotes the permeability from basolateral to apical divided by that in the opposite direction, in the common usage. What is called microsomal CLint is the rate of metabolic loss divided by the concentration. High values mean rapid turnover, low ones slow turnover. Regarding `CC(C)C(N/C(=N/S(=O)(=O)c1ccc(C(F)(F)F)cc1)N1CCC(c2ccccc2)C(c2ccc(Cl)cc2)=N1)C(N)=O` (single isomer, unassigned) [Compound 29a, (Z)-2-(3-(4-chlorophenyl)-4-phenyl-N′-((4-(trifluoromethyl)phenyl)sulfonyl)-1,4,5,6-tetrahydropyridazine-1-carboximidamido)-3-methylbutanamide], the inhibitory constant (Ki) on CB1 came out at 13.2 nM. The concentration for half-maximal inhibition (IC50) on Brain/CB1 is 389 nM. Moreover, in the data set with Caco-2 (mean), the “Papp (AB), 10^−6 cm/s, Mean” value is listed as 1.4 10^−6 cm/s and the “Papp (BA), 10^−6 cm/s, Mean” value is listed as 0.5 10^−6 cm/s. Further, the efflux ratio with Caco-2 (quotient of Papp(BA) to Papp(AB)) is recorded as 0.4. Moreover, in the data set on Caco-2 (replicate 1), the “Papp (AB), 10^−6 cm/s, 1” value is recorded as 1.4 10^−6 cm/s and the “Papp (BA), 10^−6 cm/s, 1” value is reported as 0.5 10^−6 cm/s. In the data set on Caco-2 (replicate 2), the “Papp (AB), 10^−6 cm/s, 2” value is on record as 1.4 10^−6 cm/s and the “Papp (BA), 10^−6 cm/s, 2” value is given as 0.5 10^−6 cm/s. In data set [1], the “Clint” value stood at 236 µL/min/mg and the “t1/2, min” value turned out to be 0.118 h. Further, in data set [2], the microsomal CLint is 23 µL/min/mg and the half-life is 1.22 h.

`CC(C)(C)/C(N)=N/C(=N/S(=O)(=O)c1ccc(C(F)(F)F)cc1)N1CCC(c2ccccc2)C(c2ccc(Cl)cc2)=N1` (stereo not shown) [Compound 10o, (Z)—N—((Z)-1-amino-2,2-dimethylpropylidene)-3-(4-chlorophenyl)-4-phenyl-N′-((4-(trifluoromethyl)phenyl)sulfonyl)-5,6-dihydropyridazine-1 (4H)-carboximidamide]: the inhibition constant (Ki) on CB1 is 10 nM. For the same compound, the half-maximal inhibitory concentration (IC50) at Brain/CB1 worked out at 18 nM. Besides, the “iNOS inhibition % Response” value at iNOS worked out at 66%. The Papp A→B in data set [3] (setting [6]) worked out at 2.2 ×10⁻⁶ cm/s; in data set [3] (setting [8]), 1.9 ×10⁻⁶ cm/s; in data set [3] (setting [10]), 2.4 ×10⁻⁶ cm/s. Also, the Papp B→A in data set [3] (setting [7]), in data set [3] (setting [9]) and in data set [3] (setting [11]) was 0.5 ×10⁻⁶ cm/s in each case. Further, the efflux ratio in data set [3] came to 0.2. Besides, the “t1/2, min” value in [1] came out at 1.23 h; in data set [2] it was 1.07 h. Moreover, the intrinsic metabolic clearance (microsomal CLint) in [1] was 23 µL/min/mg; in data set [2] it was 26 µL/min/mg. Also, the half-life in data set [1] turned out to be 1.13 h; in [2], 1.07 h.

For the compound `N/C(=N\C(=N\S(=O)(=O)c1ccc(C(F)(F)F)cc1)N1CCC(c2ccccc2)C(c2ccc(Cl)cc2)=N1)c1ccc(F)cc1F` (stereo not shown) [Compound 10p, (Z)—N—((Z)-amino (2,4-difluorophenyl)methylene)-3-(4-chlorophenyl)-4-phenyl-N′-((4-(trifluoromethyl)phenyl)sulfonyl)-5,6-dihydropyridazine-1 (4H)-carboximidamide], the inhibitory constant (Ki) at CB1 was 9.6 nM. Moreover, at Brain/CB1, the IC50 came to 13 nM. Further, the “iNOS inhibition % Response” value on iNOS was determined as 36%. In addition, the Papp A→B is 1.4 ×10⁻⁶ cm/s in data set [3] (setting [6]), 1.5 ×10⁻⁶ cm/s in data set [3] (setting [8]) and 1.3 ×10⁻⁶ cm/s in data set [3] (setting [10]). Also, the Papp B→A in data set [3] (setting [7]) worked out at 0.6 ×10⁻⁶ cm/s; in data set [3] (setting [9]), 0.6 ×10⁻⁶ cm/s; in data set [3] (setting [11]), 0.5 ×10⁻⁶ cm/s. In data set [3], the efflux ratio was 0.4. For the same compound, the “t1/2, min” value in [1] was 1.13 h. The intrinsic metabolic clearance (microsomal CLint) in data set [1] came out at 25 µL/min/mg; in [2] it was 6 µL/min/mg. The half-life came to 1.3 h in data set [1] and 4.8 h in [2].

On to `CC(C)C(N/C(=N/S(=O)(=O)c1ccc(C(F)(F)F)cc1)N1CCC(c2ccccc2)C(c2ccc(Cl)cc2)=N1)C(N)=O` (single isomer, unassigned) [Compound 29b, (Z)-2-(3-(4-chlorophenyl)-4-phenyl-N′-((4-(trifluoromethyl)phenyl)sulfonyl)-1,4,5,6-tetrahydropyridazine-1-carboximidamido)-3-methylbutanamide], for which the Ki at CB1 was 2.7 nM. Moreover, the IC50 at Brain/CB1 was 10 nM. The Papp A→B was 0.9 ×10⁻⁶ cm/s in data set [3] (setting [6]), 0.9 ×10⁻⁶ cm/s in [3] (setting [8]) and 1 ×10⁻⁶ cm/s in data set [3] (setting [10]). The results for the Papp B→A in data set [3] (setting [7]), in data set [3] (setting [9]) and in data set [3] (setting [11]) were 0.3 ×10⁻⁶ cm/s, 0.3 ×10⁻⁶ cm/s and 0.4 ×10⁻⁶ cm/s, respectively. Further, the efflux ratio in [3] is 0.4. The figures for the “Clint” value in data set [1] and in [2] were 883 µL/min/mg and 15 µL/min/mg, respectively. Further, the “t1/2, min” value in data set [1] amounted to 0.0317 h; in data set [2], 1.91 h.

With `C/C(N)=N\C(=N\S(=O)(=O)c1ccc(C(F)(F)F)cc1)N1CCC(c2ccccc2)C(c2ccc(Cl)cc2)=N1` (stereo not shown) [Compound 10b, (Z)—N—((E)-1-aminoethylidene)-3-(4-chlorophenyl)-4-phenyl-N′-((4-(trifluoromethyl)phenyl)sulfonyl)-5,6-dihydropyridazine-1 (4H)-carboximidamide], at CB1, the inhibitory constant (Ki) came out at 15 nM. This compound also came in with a concentration for half-maximal inhibition (IC50) on Brain/CB1 of 93 nM. Besides, the “iNOS inhibition % Response” value at iNOS is recorded as 64%. Further, the figures for the “reduction in the fluorescence intensity, cAMP assay” value at Cannabinoid receptor 1 [4] (10 nM), at Cannabinoid receptor 1 [4] (100 nM) and on Cannabinoid receptor 1 [4] (1 μM) were approximately 19%, approximately 29% and approximately 47%, respectively. Besides, the “reduction in the fluorescence intensity, arrestin assay” value at Cannabinoid receptor 1 [5] (10 nM) was 22%; on Cannabinoid receptor 1 [5] (100 nM), 34%; at Cannabinoid receptor 1 [5] (1 μM) it was 50%. Besides, the Papp A→B in [3] (setting [6]) came to 2.5 ×10⁻⁶ cm/s; in [3] (setting [8]), 2.4 ×10⁻⁶ cm/s; in data set [3] (setting [10]) it was 2.5 ×10⁻⁶ cm/s. Further, the figures for the Papp B→A in data set [3] (setting [7]), in data set [3] (setting [9]) and in data set [3] (setting [11]) were 1.9 ×10⁻⁶ cm/s, 1.9 ×10⁻⁶ cm/s and 1.8 ×10⁻⁶ cm/s, respectively. The efflux ratio in data set [3] was 0.8. Besides, the intrinsic clearance (microsomal CLint) stood at 34 µL/min/mg in data set [1] and 2 µL/min/mg in [2]. For the same compound, the values for the half-life in data set [1] and in data set [2] were 0.813 h and 12.7 h, respectively.

Take `CC(C)C(N/C(=N/S(=O)(=O)c1ccc(C(F)(F)F)cc1)N1CCC(c2ccccc2)C(c2ccc(Cl)cc2)=N1)C(N)=O` (stereo not shown) [2-(3-(4-chlorophenyl)-4-phenyl-N′-((4-(trifluoromethyl)phenyl)sulfonyl)-1,4,5,6-tetrahydropyridazine-1-carboximidamido)-3-methylbutanamide]: the IC50 against Cannabinoid receptor 1 [4] (setting [12]) was 0.804 nM; at Cannabinoid receptor 1 [5] (setting [12]) it was 0.227 nM.
